Measured values from patent publication US20140171415A1, “FUNNY CURRENT (IF) INHIBITORS FOR USE IN A METHOD OF TREATING AND PREVENTING HEART DISEASE IN CANINE” (Boehringer Ingelheim Vetmedica GmbH, priority 2012, published 2014).

Experiments:
Ih channel = conditions: literature: Neuroscience 1994 (zatebradine), British Journal of Pharmacology 1998 (cilobradine); cited from earlier work
conscious dogs = test: Heart rate and arterial blood pressure by telemetry in conscious dogs; type: in vivo, dog
Procedure: Heart rate (HR) and arterial blood pressure (BP) were measured in conscious dogs using telemetry methodology. They received daily oral doses of 0.3 mg/kg over 5 days. HR measured prior drug administration was reduced from 64.0±6.81 beats per minute (bpm) to 50.5±5.54 bpm on day 5. maximal effect on HR were seen between 1.5 and 3.5 hours post-dosing and HR reached values between 45 and 53 bpm. No effect on arterial BP was seen.

anesthetized dogs = test: Cardiovascular and electrocardiographic effects in anesthetized dogs; type: in vivo, dog
Procedure: Cardiovascular and Electrocardiographic Effects of Cilobradine (DKAH 3 CL) in Dogs:
The dose of 0.05 mg/kg reduced spontaneous HR by 23% whereas 0.1 mg/kg i.v. reduced HR by 42%. Systolic and diastolic pressure was not affected. The effective refractory times of the sinus and atrioventricular (AV) node increased with 0.05 mg/kg by 31% and 30% respectively.

[1] = test system: conscious, chronically instrumented dogs; test: Hemodynamic action in conscious, chronically instrumented dogs; type: in vivo, dog; conditions: 2.5 mg/kg orally
Description: Hyodynamic Action in Conscious, Chronically Instrumented Dogs:
HR dropped by up to 40% while blood pressure was not affected. Left ventricular end-diastolic pressure rose. This effect on preload may be explained by prolongation of the filling period due to prolongation of diastolic duration. Renal blood flow was maintained and coronary blood flow decreased by up to 40% most likely as a consequence of a drop in myocardial oxygen demand.

healthy Beagle dogs = test: Radiotelemetric pharmacodynamic study, repeated once and twice daily oral administration; type: in vivo, dog; conditions: for minimum of the first derivative of the left ventricular pressure against time (LVdP/dtmin) / maximum of the first derivative of the left ventricular pressure against time (LVdP/dtmax) / decrease of heart rate: healthy Beagle dogs; for minimum of the first derivative of the left ventricular pressure against time (LVdP/dtmin): from −2700 mmHg/s; for maximum of the first derivative of the left ventricular pressure against time (LVdP/dtmax): increased from 2700 mmHg/s; for decrease of heart rate: 0.3 mg/kg bodyweight oral, 2 mg/ml oral suspension
Procedure: A Radiotelemetric Study to Evaluate the Pharmacodynamic Effects of Cilobradine HCl 2 Mg/Ml Oral Suspension after Repeated Once and Twice Daily Oral Administration to Healthy Beagle Dogs
Cilobradine HCl 2 mg/ml oral suspension was given once or twice daily at doses of 0.3 mg/kg bodyweight to conscious, healthy Beagle dogs chronically implanted with a telemetry system. Heart rate, systolic blood pressure, diastolic blood pressure, aortic pressure, left ventricular pressure, electrocardiogram (ECG), and body temperature were recorded. Before each treatment sequence all dogs underwent a 24 hour pre-dosing measurement which served as a baseline (control) measurement. After dosing the dogs were left undisturbed for the duration of the study, which lasted 24 hours, with the exception of the second dosing 10-12 hours after the first treatment.

[2] = Lipophilicity profile of the active substance; type: physicochemical; conditions: neutral pH versus acidic pH
Description: Usually, EC/HPMC films show a sustained release behavior that is independent of pH. […] This, together with the coating applied, may have led to a slower release.

[3] = 0.3 mg/kg bodyweight once daily and twice daily in comparison to control
[4] = 0.3 mg/kg bodyweight once daily
[5] = 0.3 mg/kg bodyweight twice daily

COc1ccc(CCN(C)CCCN2CCc3cc(OC)c(OC)cc3CC2=O)cc1OC [zatebradine, reference compound]
effect on the Ih channel (Ih channel): can also be blocked

COc1ccc(CCN2CCC[C@H](CN3CCc4cc(OC)c(OC)cc4CC3=O)C2)cc1OC [Cilobradine, (+)-3-[(N-(2-(3,4-dimethoxy-phenyl)ethyl)-piperidin-3-(S)-yl)-methyl]-(7,8-dimethoxy-1,3,4,5-tetrahydro-2H-3-benzazepin-2-on)]
effect on arterial BP (conscious dogs; daily oral 0.3 mg/kg over 5 days): No effect | HR measured prior drug administration on day 5 (conscious dogs; daily oral doses of 0.3 mg/kg over 5 days, reduced from 64.0±6.81 bpm): 50.5±5.54 bpm | increase of effective refractory time of the atrioventricular (AV) node (anesthetized dogs; 0.05 mg/kg i.v.): 30% | increase of effective refractory time of the sinus node (anesthetized dogs; 0.05 mg/kg i.v.): 31% | reduction of spontaneous HR (anesthetized dogs; 0.05 mg/kg i.v.): 23% | reduction of spontaneous HR (anesthetized dogs; 0.1 mg/kg i.v.): 42% | systolic and diastolic pressure (anesthetized dogs; 0.05 or 0.1 mg/kg i.v.): not affected | blood pressure [1]: not affected | decrease of coronary blood flow [1]: up to 40% | drop of HR [1]: up to 40% | left ventricular end-diastolic pressure [1]: rose | renal blood flow [1]: maintained | effect on the Ih channel (Ih channel): can also be blocked

COc1ccc(CCN2CCC[C@H](CN3CCc4cc(OC)c(OC)cc4CC3=O)C2)cc1OC.Cl [cilobradine HCl, (+)-3-[(N-(2-(3,4-dimethoxy-phenyl)ethyl)-piperidin-3-(S)-yl)-methyl]-(7,8-dimethoxy-1,3,4,5-tetrahydro-2H-3-benzazepin-2-on hydrochloride)]
inotropic effect (FIG. 1) (healthy Beagle dogs; [3]): positive inotropic effect | lusitropic effect (FIG. 2) (healthy Beagle dogs; [3]): positive lusitropic effect | minimum of the first derivative of the left ventricular pressure against time (LVdP/dtmin) (healthy Beagle dogs; [4]): −3000 mmHg/s | maximum of the first derivative of the left ventricular pressure against time (LVdP/dtmax) (healthy Beagle dogs; [4]): 3000 mmHg/s | decrease of heart rate (healthy Beagle dogs; repeated once daily): approximately 25% | decrease of heart rate (healthy Beagle dogs; repeated twice daily): ~30% | minimum of the first derivative of the left ventricular pressure against time (LVdP/dtmin) (healthy Beagle dogs; [5]): −3550 mmHg/s | maximum of the first derivative of the left ventricular pressure against time (LVdP/dtmax) (healthy Beagle dogs; [5]): 3550 mmHg/s | lipophilicity profile [2]: slightly more lipophilic at neutral pH values
